Data: US7628984B2, “Micronutrient formulations for pulmonary and heart health” (Premier Micronutrient Corporation, priority 2005, dated 2009)
Like-named read-outs stand apart in the source and are kept apart here.

How the values were obtained:
[1] = test system: patients undergoing angioplasty; settings: 317 patients, 4 weeks before and 6 months after angioplasty, vs placebo, cited from earlier work
[2] = test system: patients with idiopathic dilated cardiomyopathy; settings: Co-enzyme Q10 33.3 mg thrice/day, 126 patients, 6 y; cited from earlier work
[3] = cited from earlier work
[4] = test system: connexin gene; settings: mammalian cells in culture; cited from earlier work
[5] = test system: intracellular levels of glutathione; settings: cited from earlier work
[6] = Oral ingestion of α-TS, plasma levels; format: in vivo; settings: 800 IU/day, humans
From the text: Also, the oxidative DNA damage produced by oxidized vitamin C could be ameliorated by vitamin E. The form and type of vitamin E used are also important in any clinical trial. […] Selenium is a co-factor of glutathione perodidase, and Se-glutathione peroxidase also acts as an antioxidant. Therefore, selenium supplementation together with other antioxidants is also essential.

[7] = test system: adenylate cyclase; settings: cited from earlier work
[8] = oral supplementation, human subjects; cited from earlier work
[9] = test system: patients with angiographically proven coronary atherosclerosis; settings: cited from earlier work
[10] = test system: diabetes type 2 patients with or without macrovascular complications; settings: 1200 IU/day, 75 patients, 5 months; cited from earlier work
[11] = test system: patients with chronic renal failure; settings: 800 IU, 33 patients, 12 weeks, cited from earlier work
[12] = test system: smokers with hypercholesterolemia; settings: 544 IU, 42 patients, 4 months; cited from earlier work
[13] = test system: healthy male subjects receiving methionine; settings: Vit. C 2 g, methionine 100 mg/kg, 6 hours; cited from earlier work
[14] = test system: patients with high risk for cardiac events; settings: Vitamin E 400 IU, 9,541 patients, follow-up 4.5 y, vs control, cited from earlier work
[15] = test system: heavy smokers; settings: 800 IU daily, 10 heavy smokers, 3 weeks, cited from earlier work
[16] = test system: patients having coronary angioplasty; settings: cited from earlier work
[17] = test system: men (high risk patients with prior cardiac events); settings: 50 mg/day, 1862 men, 6 y, vs placebo, cited from earlier work
[18] = test system: 39,910 male health professionals; settings: at least 100 IU per day for at least 2 years vs no vitamin E; cited from earlier work
[19] = test system: 11,000 people of age 67 or over; settings: follow up 6 years; cited from earlier work
[20] = test system: chickens; settings: cited from earlier work
[21] = test system: rabbits; settings: cited from earlier work
[22] = test system: male monkeys; settings: vs unsupplemented atherosclerotic-promoting diet; cited from earlier work
[23] = 400 or 800 IU per day, median follow-up 510 days

In the case of `CC(C)(Sc1cc(C(C)(C)C)c(O)c(C(C)(C)C)c1)Sc1cc(C(C)(C)C)c(O)c(C(C)(C)C)c1` [Probucol], the Restenosis [1] is given as “probucol reduced” and the Restenosis ([1]; listed as probucol) is given as “effective in reducing”.
For `COC1=C(OC)C(=O)C(C/C=C(\C)CC/C=C(\C)CC/C=C(\C)CC/C=C(\C)CC/C=C(\C)CC/C=C(\C)CC/C=C(\C)CC/C=C(\C)CC/C=C(\C)CCC=C(C)C)=C(C)C1=O` [Coenzyme Q10], the Cardiac muscle function [2] is given as “useful in improving” and the “doses with no known toxicity in humans” value ([3]; in vivo) is given as “up to 300 mg/d”.
In the case of `CC1=C(/C=C/C(C)=C/C=C/C(C)=C/C=C/C=C(C)/C=C/C=C(C)/C=C/C2=C(C)CCCC2(C)C)C(C)(C)CCC1` [BC, β-carotene], the “doses that can cause yellowing of skin and pigment deposits in the eye” value ([3]; reversible upon discontinuation) is listed as at least 100 mg/day and the “expression of the connexin gene” value [4] is listed as “enhances”.
For `O=C(O)CCCCC1CCSS1` (stereo not drawn) [α-lipoic acid], the “intracellular levels of glutathione” value [5] is given as “increase”.
In the case of `CC(=O)N[C@@H](CS)C(=O)O` [N-acetylcysteine], the “intracellular levels of glutathione” value [5] is given as “increase” and the “doses that can cause trace metal deficiencies” value ([3]; in vivo) is given as at least 1000 mg/day.
In the case of `Cc1c(C)c2c(c(C)c1OC(=O)CCC(=O)O)CC[C@@](C)(CCC[C@H](C)CCC[C@H](C)CCCC(C)C)O2` [α-TS, α-tocopherol-succinate], the “plasma levels of α-tocopherol and α-TS” value [6] is listed as “increased” and the “action of PGE2 on adenylate cyclase” value [7] is listed as “reduce”.
For `N[C@@H](CCC(=O)N[C@@H](CS)C(=O)NCC(=O)O)C(=O)O` [glutathione], the “plasma levels of glutathione” value [8] is given as “failed to significantly increase”.
For `Cc1c(C)c2c(c(C)c1O)CC[C@@](C)(CCC[C@H](C)CCC[C@H](C)CCCC(C)C)O2` [Vitamin E (d-αT), d-alpha tocopherol], the “Death, non-fatal MI” value ([9]; 400 or 800 IU, 2,002 patients, follow-up 510 d) is given as “reduced”, the “C-reactive protein (and monocyte interleukin-6)” value [10] is given as “lowered” and the LDL oxidation ([11]; listed as Vit. E (d-αT)) is given as “reduced”. For the same compound, the LDL oxidation ([11]; listed as α-tocopherol) was “decreased”.
For `CC(=O)Oc1c(C)c(C)c2c(c1C)CCC(C)(CCC[C@H](C)CCC[C@H](C)CCCC(C)C)O2` (stereo partly drawn) [Vitamin E(α-TA), alpha tocopheryl acetate], the “FMD (endothelial-dependent flow-mediated dilation)” value [12] is given as “improved”.
In the case of `O=C1O[C@H]([C@@H](O)CO)C(O)=C1O` [Vit. C, ascorbic acid], the “Plasma homocysteine, arterial stiffness” value [13] is given as “reduced”.
In the case of vitamin A, the “toxicity after prolonged consumption in adults” value ([3]; daily doses higher than twice the RDA) is given as “liver and skin toxicity” and the “expression of the connexin gene” value [4] is given as “does not produce such an effect”.
In the case of Vitamin E, the “Death, stroke, non-fatal MI” value [14] is given as “no effect”, the “Death, stroke, non-fatal MI” value ([14]; listed as vitamin E) is given as “did not reduce” and the “increase in cardiovascular death” value [9, 23] is given as 18%. The “lower risk of non-fatal myocardial infarction than the placebo group” value [9, 23] was 77%, the “FMD (endothelial-dependent flow-mediated dilation)” value [12] was “improved” and the “Oxidative stress (levels of oxidative stress markers)” value [15] was “increases”. The “Oxidative stress (levels of oxidative stress markers)” value ([15]; listed as vitamin E) was “increased”, the “restenosis, % of patients” value ([16]; 1200 IU daily for 4 months, placebo 50%) was 34.6% and the Stenosis ([16]; 1200 IU, 100 patients, 4 months) was “reduced”. The “C-reactive protein (and monocyte interleukin-6)” value [10] was “reduced”, the “Death, CAD events” value [17] was “no effect” and the “Death, CAD events” value ([17]; listed as vitamin E) was “no significant difference”. For the same compound, the “lower risk of CAD” value [18] was 37%, the “reduction in mortality from CAD” value [19] was 47% and the “development of early aortic atherosclerotic lesions” value [20] was “reduce”. The “development of early aortic atherosclerotic lesions” value [21] was “reduce”, the stenosis progression [22] was “decreased” and the “doses used for short-term clinical studies without adverse effects” value ([3]; in vivo) was “up to 2,000 IU/d”.
